Columns and labels:
Assay in all cases: relative viability (nuclei count vs DMSO), 5 days (fraction); higher = more cells survive
Cediranib + Decitabine = compound: COc1cc2c(Oc3ccc4[nH]c(C)cc4c3F)ncnc2cc1OCCCN1CCCC1 [Cediranib] + Nc1ncn([C@H]2C[C@H](O)[C@@H](CO)O2)c(=O)n1 [Decitabine] (partner 2 µM)
Outline: (§1)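 Cells from lung cancer lines were seeded into 1536-well plates and, one day later, dosed by pin tool. Treatments were either a single drug or a fixed dose of an anchor drug with five library-drug doses (not always all listed) in √10 steps. After 5 days, nuclei were stained in a one-step fixation (final 0.05% Triton X-100, 1% formaldehyde, 1 ug/ml Hoechst) and counted on 4× images, and relative viability is the treated-to-vehicle nuclei ratio, as the median of duplicate plates.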

Cediranib + Olaparib = compound: COc1cc2c(Oc3ccc4[nH]c(C)cc4c3F)ncnc2cc1OCCCN1CCCC1 [Cediranib] + O=C(c1cc(Cc2n[nH]c(=O)c3ccccc23)ccc1F)N1CCN(C(=O)C2CC2)CC1 [Olaparib] (partner 8 µM)
Outline: as §1

Decitabine + Tozasertib = compound: Nc1ncn([C@H]2C[C@H](O)[C@@H](CO)O2)c(=O)n1 [Decitabine] + Cc1cc(Nc2cc(N3CCN(C)CC3)nc(Sc3ccc(NC(=O)C4CC4)cc3)n2)n[nH]1 [Tozasertib] (partner 0.1 µM)
Outline: as §1

Halofuginone + Dasatinib = compound: O=C(C[C@H]1NCCC[C@@H]1O)Cn1cnc2cc(Br)c(Cl)cc2c1=O (racemic) [Halofuginone] + Cc1nc(Nc2ncc(C(=O)Nc3c(C)cccc3Cl)s2)cc(N2CCN(CCO)CC2)n1 [Dasatinib] (partner 0.075 µM)
Outline: as §1

| Cell Line | relative viability (Cediranib + Decitabine; first compound 0.04 µM) | relative viability (Cediranib + Decitabine; first compound 0.1265 µM) | relative viability (Cediranib + Decitabine; first compound 0.4 µM) | relative viability (Cediranib + Decitabine; first compound 1.265 µM) | relative viability (Cediranib + Decitabine; first compound 4 µM) | relative viability (Cediranib + Olaparib; first compound 0.04 µM) | relative viability (Cediranib + Olaparib; first compound 0.1265 µM) | relative viability (Cediranib + Olaparib; first compound 0.4 µM) | relative viability (Cediranib + Olaparib; first compound 1.265 µM) | relative viability (Cediranib + Olaparib; first compound 4 µM) | relative viability (Decitabine + Tozasertib; first compound 0.04 µM) | relative viability (Decitabine + Tozasertib; first compound 0.1265 µM) | relative viability (Decitabine + Tozasertib; first compound 0.4 µM) | relative viability (Decitabine + Tozasertib; first compound 1.265 µM) | relative viability (Decitabine + Tozasertib; first compound 4 µM) | relative viability (Halofuginone + Dasatinib; first compound 0.001 µM) | relative viability (Halofuginone + Dasatinib; first compound 0.003162 µM) | relative viability (Halofuginone + Dasatinib; first compound 0.01 µM) | relative viability (Halofuginone + Dasatinib; first compound 0.03162 µM) | relative viability (Halofuginone + Dasatinib; first compound 0.1 µM) |
| --- | --- | --- | --- | --- | --- | --- | --- | --- | --- | --- | --- | --- | --- | --- | --- | --- | --- | --- | --- | --- |
| NCI-H1666 | 0.738 | 0.624 | 0.728 | 0.87 | 0.727 | 0.737 | 0.716 | 0.719 | 0.696 | 0.726 | 0.514 | 0.577 | 0.615 | 0.502 | 0.517 | 0.812 | 0.802 | 0.753 | 0.766 | 0.664 |
| NCI-H1734 | 0.531 | 0.512 | 0.551 | 0.497 | 0.536 | 0.683 | 0.623 | 0.59 | 0.676 | 0.764 | 0.265 | 0.246 | 0.221 | 0.206 | 0.192 | 0.52 | 0.558 | 0.436 | 0.449 | 0.293 |
| NCI-H1755 | 0.71 | 0.66 | 0.753 | 0.707 | 0.724 | 0.918 | 0.791 | 0.867 | 0.836 | 0.955 | 0.525 | 0.538 | 0.473 | 0.372 | 0.357 | 0.514 | 0.435 | 0.465 | 0.422 | 0.291 |
| NCI-H1793 | 0.51 | 0.477 | 0.478 | 0.478 | 0.506 | 0.953 | 1.07 | 0.762 | 0.718 | 1.13 | 0.288 | 0.335 | 0.247 | 0.226 | 0.207 | 0.374 | 0.37 | 0.418 | 0.468 | 0.296 |
| NCI-H1915 | 0.259 | 0.248 | 0.259 | 0.26 | 0.28 | 0.246 | 0.251 | 0.263 | 0.289 | 0.249 | 0.274 | 0.224 | 0.174 | 0.175 | 0.189 | 0.308 | 0.332 | 0.322 | 0.294 | 0.23 |
| NCI-H1944 | 0.443 | 0.396 | 0.422 | 0.443 | 0.45 | 0.391 | 0.394 | 0.395 | 0.407 | 0.376 | 0.234 | 0.268 | 0.22 | 0.201 | 0.186 | 0.229 | 0.236 | 0.209 | 0.207 | 0.155 |
| NCI-H1975 | 0.638 | 0.432 | 0.403 | 0.351 | 0.42 | 0.841 | 0.752 | 0.768 | 0.773 | 0.773 | 0.279 | 0.239 | 0.132 | 0.152 | 0.129 | 0.375 | 0.324 | 0.348 | 0.231 | 0.117 |
| NCI-H1993 | – | 0.629 | 0.666 | 0.518 | 0.651 | – | 0.933 | 0.847 | 1.1 | 1.09 | 0.682 | 0.591 | 0.683 | 0.568 | 0.553 | 0.619 | 0.558 | 0.562 | 0.532 | 0.434 |
| NCI-H2009 | 0.4 | 0.366 | 0.369 | 0.333 | 0.417 | 0.637 | 0.698 | 0.676 | 0.694 | 0.669 | 0.628 | 0.451 | 0.399 | 0.312 | 0.252 | 0.313 | 0.385 | 0.289 | 0.216 | 0.151 |
| NCI-H2023 | 0.212 | 0.229 | 0.229 | 0.234 | 0.266 | 0.511 | 0.445 | 0.47 | 0.445 | 0.527 | 0.218 | 0.226 | 0.157 | 0.0961 | 0.122 | 0.649 | 0.609 | 0.507 | 0.241 | 0.0614 |
| NCI-H2085 | 0.55 | 0.515 | 0.537 | 0.526 | 0.541 | 0.737 | 0.729 | 0.745 | 0.8 | 0.746 | 0.666 | 0.669 | 0.54 | 0.454 | 0.437 | 0.252 | 0.226 | 0.259 | 0.269 | 0.237 |
| NCI-H2087 | 0.22 | 0.35 | 0.308 | 0.328 | 0.276 | 0.609 | 0.62 | 0.575 | 0.567 | 0.708 | 0.229 | 0.194 | 0.176 | 0.129 | 0.153 | 0.834 | 1.16 | 0.9 | 0.808 | 0.522 |
